# Article PMC9234962, “Optimization of Peptide Linker-Based Fluorescent Ligands for the Histamine H1 Receptor” (Journal of Medicinal Chemistry, 2022)
# Where two headings read alike, the source gives them in different places. Square brackets hold non-standard residues; d marks the D form. Peptide text beside a SMILES is read from it. * marks the point of attachment. Propanoyl(3-Pip(4-O-2-BnPh)) = O=C(CCN1CCC(Oc2ccccc2Cc2ccccc2)CC1)*; X3 = Cc1cc(C)n2c1C=C1C=CC(/C=C/c3ccc(OCC(=O)*)cc3)=[N+]1[B-]2(F)F; BODIPY(FL) = CC1=CC(C)=[N+]2C1=Cc1ccc(CCC(=O)*)n1[B-]2(F)F; X2 = O=C(CCC1=[N+]2C(=Cc3ccc(-c4cccs4)n3[B-]2(F)F)C=C1)*; βAla = NCCC(=O)O
# Key:
# Nluc-H1R = Nluc-H1R (Homo sapiens, UniProt P35367); assay: NanoBRET saturation binding assay on Nluc-H1R expressing HEK293T cells; set-up: expressed in transfected cells; details: saturation binding curves, whole HEK293T cells; for pKD: non-specific with 10 μM mepyramine, mean ± SEM
# Chain of Nluc-H1R (P35367 whole entry): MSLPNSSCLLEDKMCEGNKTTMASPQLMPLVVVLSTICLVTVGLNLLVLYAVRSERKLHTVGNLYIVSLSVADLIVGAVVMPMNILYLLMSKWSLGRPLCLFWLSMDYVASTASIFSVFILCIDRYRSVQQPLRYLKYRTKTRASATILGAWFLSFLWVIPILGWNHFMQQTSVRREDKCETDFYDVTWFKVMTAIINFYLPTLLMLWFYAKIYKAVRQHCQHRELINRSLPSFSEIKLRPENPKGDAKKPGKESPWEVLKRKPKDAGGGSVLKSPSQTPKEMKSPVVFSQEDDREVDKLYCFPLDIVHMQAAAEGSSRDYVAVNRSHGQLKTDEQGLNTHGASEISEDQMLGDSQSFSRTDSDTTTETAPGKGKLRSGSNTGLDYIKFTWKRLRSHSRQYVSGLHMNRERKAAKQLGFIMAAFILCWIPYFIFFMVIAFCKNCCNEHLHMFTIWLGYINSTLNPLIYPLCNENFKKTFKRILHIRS
# Text: Total and non-specific saturation binding curves from NanoBRET saturation binding assay were fitted simultaneously using eq 1: [drawing 4] 1 where Bmax is the maximal specific binding, [B] is the concentration of fluorescent ligand in nM, KD is the equilibrium dissociation constant in nM, M is the slope of the non-specific component, and C is the intercept with the Y axis.
# human H1R = target: T1, human H1R (Homo sapiens, UniProt P35367); assay: Ca2+ mobilization assay on human H1R-expressing CHO cells; type: cell-based; details: Gaddum equation, shift in histamine EC25 with 1 μM antagonist
# T1 construct: expressed in transfected cells; host or cells: CHO cells
# T1 sequence (P35367 whole entry): as above
# Description: CHO cells expressing H1R were grown to confluence in black-walled, clear-bottom 96-well plates. On the day of the experiment, media were replaced with 100 μL of HBSS containing […], 2.3 μM Fluo-4AM (Invitrogen), 0.023% Pluronic F-127, 0.5 mM Brilliant Black BN, and 1 μM required fluorescent ligand and the plates incubated for 1 h at 37 °C in the dark. The plates were then placed in the multi-well fluorometric imaging plate reader FlexStation3 (Molecular Devices, Sunnyvale, CA) and HBSS only or HBSS containing the required concentration of histamine was added after 15 s. Fluo-4 fluorescence was measured at 520 nm (excitation at 485 nm) every 1.52 s for 200 s. For each well, the peak maximum–minimum–maximum change in fluorescence value was taken and plotted against concentration of histamine to give a dose–response curve.
# Estimated affinity values (pKB) were calculated from the shift in agonist concentration–response curves in the presence of the fluorescent antagonists using the Gaddum equation (7): [drawing 10] 7 where DR (dose ratio) is the ratio of the agonist concentration required to stimulate an identical response in the presence and absence of antagonist, [B]. DR was determined from the EC25 value as there was a decrease in observed maximal efficacy of histamine in the presence of all 10 fluorescent antagonists.
# [1] = mean ± SEM, four experiments, read-out: pKB (converted)
Kd (Nluc-H1R) [nM],pKD (Nluc-H1R),Kb (human H1R; [1]) [nM],Kb (human H1R; read-out: KB (converted)) [nM],SMILES
66,7.18 ± 0.11,110,–,"Cc1cc(C)n2c1C=C1C=CC(/C=C/c3ccc(OCC(=O)NCCCC[C@H](NC(=O)CCNC(=O)[C@H](CC(N)=O)NC(=O)[C@H](CO)NC(=O)[C@@H](NC(=O)CCN4CCC(Oc5ccccc5Cc5ccccc5)CC4)C(C)C)C(N)=O)cc3)=[N+]1[B-]2(F)F [Compound 38b, (S)-N^1-(3-(((S)-1-Amino-6-(2-(4-((E)-2-(5,5-difluoro-7,9-dimethyl-5H-5λ^4,6λ^4-dipyrrolo[1,2-c:2’,1’-f][1,3,2]diazaborinin-3-yl)vinyl)phenoxy)acetamido)-1-oxohexan-2-yl)amino)-3-oxopropyl)-2-((S)-2-((S)-2-(3-(4-(2-benzylphenoxy)piperidin-1-yl)propanamido)-3-methylbutanamido)-3-hydroxypropanamido)succinamide] ({Propanoyl(3-Pip(4-O-2-BnPh))}-VSN[βAla]K(X3)-NH2)"
209,6.68 ± 0.10,–,302,"CC(C)[C@H](NC(=O)CCN1CCC(Oc2ccccc2Cc2ccccc2)CC1)C(=O)N[C@@H](CO)C(=O)N[C@@H](CC(N)=O)C(=O)NCCC(=O)N[C@@H](CCCCNC(=O)CCC1=[N+]2C(=Cc3ccc(-c4cccs4)n3[B-]2(F)F)C=C1)C(N)=O [Compound 38c, (S)-N^1-(3-(((S)-1-Amino-6-(3-(5,5-difluoro-7-(thiophen-2-yl)-5H-5λ^4,6λ^4-dipyrrolo[1,2-c:2’,1’-f][1,3,2]diazaborinin-3-yl)propanamido)-1-oxohexan-2-yl)amino)-3-oxopropyl)-2-((S)-2-((S)-2-(3-(4-(2-benzylphenoxy)piperidin-1-yl)propanamido)-3-methylbutanamido)-3-hydroxypropanamido)succinamide] ({Propanoyl(3-Pip(4-O-2-BnPh))}-VSN[βAla]K(X2)-NH2)"
1290,5.89 ± 0.10,–,112,"Cc1cc(C)n2c1C=C1C=CC(CCC(=O)NCCCC[C@H](NC(=O)CCNC(=O)[C@H](CC(N)=O)NC(=O)[C@H](CO)NC(=O)[C@@H](NC(=O)CCN3CCC(Oc4ccccc4Cc4ccccc4)CC3)C(C)C)C(N)=O)=[N+]1[B-]2(F)F [Compound 38d, (S)-N^1-(3-(((S)-1-Amino-6-(3-(5,5-difluoro-7,9-dimethyl-5H-4λ^4,5λ^4-dipyrrolo[1,2-c:2’,1’-f][1,3,2]diazaborinin-3-yl)propanamido)-1-oxohexan-2-yl)amino)-3-oxopropyl)-2-((S)-2-((S)-2-(3-(4-(2-benzylphenoxy)piperidin-1-yl)propanamido)-3-methylbutanamido)-3-hydroxypropanamido)succinamide] ({Propanoyl(3-Pip(4-O-2-BnPh))}-VSN[βAla]K(BODIPY(FL))-NH2)"
2190,5.66 ± 0.02,–,4680,"CC(C)[C@H](NC(=O)CCN1CCC(Oc2ccccc2Cc2ccccc2)CC1)C(=O)N[C@@H](CO)C(=O)N[C@@H](CC(N)=O)C(=O)NCCC(=O)N[C@@H](CCCCNC(=O)CCCCC[N+]1=C(/C=C/C=C/C=C2/N(C)c3ccc(S(=O)(=O)[O-])cc3C2(C)C)C(C)(C)c2cc(S(=O)(=O)O)ccc21)C(N)=O [Compound 38f, 1-((5S,8S,11S,18S)-11-(2-Amino-2-oxoethyl)-1-(4-(2-benzylphenoxy)piperidin-1-yl)-18-carbamoyl-8-(hydroxymethyl)-5-isopropyl-3,6,9,12,16,24-hexaoxo-4,7,10,13,17,23-hexaazanonacosan-29-yl)-3,3-dimethyl-2-((1E,3E)-5-((E)-1,3,3-trimethyl-5-sulfonatoindolin-2-ylidene)penta-1,3-dien-1-yl)-3H-indol-1-ium-5-sulfonate]"
44,7.36 ± 0.03,–,102,"Cc1cc(C)n2c1C=C1C=CC(/C=C/c3ccc(OCC(=O)NCCCC[C@H](NC(=O)CCNC(=O)[C@H](C)NC(=O)[C@H](C)NC(=O)[C@H](Cc4ccccc4)NC(=O)CCN4CCC(Oc5ccccc5Cc5ccccc5)CC4)C(N)=O)cc3)=[N+]1[B-]2(F)F [Compound 39b, (S)-2-((6S,9S,12S)-12-Benzyl-16-(4-(2-benzylphenoxy)piperidin-1-yl)-6,9-dimethyl-5,8,11,14-tetraoxo-4,7,10,13-tetraazahexadecanamido)-6-(2-(4-((E)-2-(5,5-difluoro-7,9-dimethyl-5H-5λ^4,6λ^4-dipyrrolo[1,2-c:2’,1’-f][1,3,2]diazaborinin-3-yl)vinyl)phenoxy)acetamido)hexanamide] ({Propanoyl(3-Pip(4-O-2-BnPh))}-FAA[βAla]K(X3)-NH2)"
724,6.14 ± 0.06,–,363,"C[C@H](NC(=O)[C@H](C)NC(=O)[C@H](Cc1ccccc1)NC(=O)CCN1CCC(Oc2ccccc2Cc2ccccc2)CC1)C(=O)NCCC(=O)N[C@@H](CCCCNC(=O)CCC1=[N+]2C(=Cc3ccc(-c4cccs4)n3[B-]2(F)F)C=C1)C(N)=O [Compound 39c, (S)-2-((6S,9S,12S)-12-Benzyl-16-(4-(2-benzylphenoxy)piperidin-1-yl)-6,9-dimethyl-5,8,11,14-tetraoxo-4,7,10,13-tetraazahexadecanamido)-6-(3-(5,5-difluoro-7-(thiophen-2-yl)-5H-5λ^4,6λ^4-dipyrrolo[1,2-c:2’,1’-f][1,3,2]diazaborinin-3-yl)propanamido)hexanamide] ({Propanoyl(3-Pip(4-O-2-BnPh))}-FAA[βAla]K(X2)-NH2)"
1440,5.84 ± 0.13,34.7,–,"Cc1cc(C)n2c1C=C1C=CC(CCC(=O)NCCCC[C@H](NC(=O)CCNC(=O)[C@H](C)NC(=O)[C@H](C)NC(=O)[C@H](Cc3ccccc3)NC(=O)CCN3CCC(Oc4ccccc4Cc4ccccc4)CC3)C(N)=O)=[N+]1[B-]2(F)F [Compound 39d, (S)-2-((6S,9S,12S)-12-Benzyl-16-(4-(2-benzylphenoxy)piperidin-1-yl)-6,9-dimethyl-5,8,11,14-tetraoxo-4,7,10,13-tetraazahexadecanamido)-6-(3-(5,5-difluoro-7,9-dimethyl-5H-4λ^4,5λ^4-dipyrrolo[1,2-c:2’,1’-f][1,3,2]diazaborinin-3-yl)propan-amido)hexanamide] ({Propanoyl(3-Pip(4-O-2-BnPh))}-FAA[βAla]K(BODIPY(FL))-NH2)"
2190,5.66 ± 0.06,–,813,"C[C@H](NC(=O)[C@H](C)NC(=O)[C@H](Cc1ccccc1)NC(=O)CCN1CCC(Oc2ccccc2Cc2ccccc2)CC1)C(=O)NCCC(=O)N[C@@H](CCCCNC(=O)CCCCC[N+]1=C(/C=C/C=C/C=C2/N(C)c3ccc(S(=O)(=O)[O-])cc3C2(C)C)C(C)(C)c2cc(S(=O)(=O)O)ccc21)C(N)=O [Compound 39f, 1-((5S,8S,11S,18S)-5-Benzyl-1-(4-(2-benzylphenoxy)piperidin-1-yl)-18-carbamoyl-8,11-dimethyl-3,6,9,12,16,24-hexaoxo-4,7,10,13,17,23-hexaazanonacosan-29-yl)-3,3-dimethyl-2-((1E,3E)-5-((E)-1,3,3-trimethyl-5-sulfonatoindolin-2-ylidene)penta-1,3-dien-1-yl)-3H-indol-1-ium-5-sulfonate]"
